Like-named read-outs stand apart in the source and are kept apart here.

Data set [1] deals with hiPSC-CM microtissues. The data set is described as follows: Cardiac TEEM: optical mapping of action potentials in 3D human cardiac microtissues. Here is the method:
Optical mapping and automated action potential duration analysis. The inventors used an Olympus MVX10 microscope to image 1.2×1.2-mm^2 regions. Microtissues were loaded with voltage-sensitive di-4-ANEPPS (5 μM for ten minutes at 35° C.) for measurements of membrane potential (Vm). […] Fluorescence images were filtered using nonlinear bilateral filter (spatial filter: 5×5 window, temporal filter: 21-point window) to preserve action potential upstrokes from blurring. Typically, four microtissues were recorded simultaneously/scan at this magnification. A single microtissue is typically covered by ˜60 pixels at this magnification. The pixels with action potentials were identified from Fast Fourier transformation (FFT) of fluorescence signals. After appropriate thresholding and image segmentation, the region of each microtissue was grouped and the fluorescence signals from the pixels in the same microtissue were average and used for action potential analysis.
Optical mapping and automated action potential analysis (alternative). Microtissues were loaded with voltage-sensitive di-4-ANEPPS (5 μM for 10 min at 35° C.) for measurements of membrane potential (Vm). […] Typically, four microtissues were recorded simultaneously per scan at this magnification. A step-by-step illustration of automated data analysis is available in FIGS. 4A-G. Briefly, the pixels with APs were identified from Fast Fourier transformation (FFT) of fluorescence signals. After appropriate thresholding and image segmentation, the region of each microtissue was grouped and the fluorescence signals from the pixels in the same microtissue were average and used for action potential analysis.
Validation and screening of toxicants for arrhythmogenic risk. […] Concentrations are selected to span human exposure levels or blood serum levels and quantify dose-dependent changes over a wide range (with a goal of more than 10,000× change in concentration and at least 4-6 doses). A single mold of microtissues is imaged for approximately 1 hour to assure quality recordings without signal degradation due to tissue degeneration, enabling measurement under control conditions (zero compound) and 3 doses.
Validation and screening of toxicants for arrhythmogenic risk (alternative). […] Microtissues were stimulated with a platinum field stimulation electrode. Myopacer EP field stimulator, IonOptix, Milton, MA, USA). […] BPA was dissolved in 10% ethanol stock solution and diluted in Tyrode solution to the final concentration. Microtissues were exposed to vehicle (DMSO or ethanol) and the indicated concentrations of test compounds for 20 min, and action potentials were measured as described above.
The Cardiac Tissue-Engineered Model (TEEM) uses human cardiomyocytes derived from human pluripotent stem cells, which express all the human proteins, ion channels and currents necessary for assessing a human-specific arrhythmic and cardiotoxic response, including the seven critical ion channels identified by the FDA's CiPA initiative. […] The intensity of the signal gives a reading of voltage (in the millivolt range) overtime, which is the action potential trace. A similar dye that fluoresces in response to the intracellular calcium (Ca^2+) concentration gives a calcium transient (CaT) for each activation of each cardiac microtissue. See above.

Data set [2] relates to hiPSC-CM microtissues. The data set is described as follows: Calcium transient (CaT) recording of spontaneous activity in hiPSC-CM microtissues. The settings on record: 100 nM. Type of data set: cell-based, human. Here is the method:
FIGS. 1A-C are a set of graphs showing the stimulation protocol and CaT metrics. […] CaTs were recorded using Rhod-2/AM. […] Activation Interval (AI), the time between two CaTs, will be measured before and after drug perfusion to detect altered spontaneous activity. CaTs recorded with the genetically encoded optogenetic probe GCaMP.
The inventors also developed a platform suitable for cardiotoxicity testing that can detect alteration in Cai release and removal processes from hiPSC-CM microtissues by measuring detailed kinetic parameters of Cai dynamics during a proposed stimulation protocol as shown in FIGS. 1A-C.

The subject of data set [3] is late sodium current (INa,late). The settings on record: read-out: IC50, late sodium current (INa,late) block; cited from earlier work.
The conditions of data set [4]: 1000 mg b.i.d.; blood serum; cited from earlier work.
The next data set deals with peak ICa (Homo sapiens, UniProt Q13936). The settings on record: cited from earlier work.
The target in another data set is INCX (Homo sapiens, UniProt P32418). The settings on record: cited from earlier work.
A short description of data set [5]: Ranolazine steady-state Cmax in blood serum (FDA documentation). The settings on record: human, 1000 mg, 1000 mg b.i.d., bracketed conversion. Type of data set: in vivo.
Another data set addresses late ICa (Homo sapiens, UniProt Q13936). The settings on record: cited from earlier work.
The subject of another data set is rats. The settings on record: rodents; greater sensitivity in female rats than male rats; cited from earlier work.
For a further data set, the target named is sodium channel Nav1.5 (Homo sapiens, UniProt Q14524). The settings on record: read-out: IC50, block of sodium channel Nav1.5; cited from earlier work.
Chain of sodium channel Nav1.5 (Q14524 whole entry): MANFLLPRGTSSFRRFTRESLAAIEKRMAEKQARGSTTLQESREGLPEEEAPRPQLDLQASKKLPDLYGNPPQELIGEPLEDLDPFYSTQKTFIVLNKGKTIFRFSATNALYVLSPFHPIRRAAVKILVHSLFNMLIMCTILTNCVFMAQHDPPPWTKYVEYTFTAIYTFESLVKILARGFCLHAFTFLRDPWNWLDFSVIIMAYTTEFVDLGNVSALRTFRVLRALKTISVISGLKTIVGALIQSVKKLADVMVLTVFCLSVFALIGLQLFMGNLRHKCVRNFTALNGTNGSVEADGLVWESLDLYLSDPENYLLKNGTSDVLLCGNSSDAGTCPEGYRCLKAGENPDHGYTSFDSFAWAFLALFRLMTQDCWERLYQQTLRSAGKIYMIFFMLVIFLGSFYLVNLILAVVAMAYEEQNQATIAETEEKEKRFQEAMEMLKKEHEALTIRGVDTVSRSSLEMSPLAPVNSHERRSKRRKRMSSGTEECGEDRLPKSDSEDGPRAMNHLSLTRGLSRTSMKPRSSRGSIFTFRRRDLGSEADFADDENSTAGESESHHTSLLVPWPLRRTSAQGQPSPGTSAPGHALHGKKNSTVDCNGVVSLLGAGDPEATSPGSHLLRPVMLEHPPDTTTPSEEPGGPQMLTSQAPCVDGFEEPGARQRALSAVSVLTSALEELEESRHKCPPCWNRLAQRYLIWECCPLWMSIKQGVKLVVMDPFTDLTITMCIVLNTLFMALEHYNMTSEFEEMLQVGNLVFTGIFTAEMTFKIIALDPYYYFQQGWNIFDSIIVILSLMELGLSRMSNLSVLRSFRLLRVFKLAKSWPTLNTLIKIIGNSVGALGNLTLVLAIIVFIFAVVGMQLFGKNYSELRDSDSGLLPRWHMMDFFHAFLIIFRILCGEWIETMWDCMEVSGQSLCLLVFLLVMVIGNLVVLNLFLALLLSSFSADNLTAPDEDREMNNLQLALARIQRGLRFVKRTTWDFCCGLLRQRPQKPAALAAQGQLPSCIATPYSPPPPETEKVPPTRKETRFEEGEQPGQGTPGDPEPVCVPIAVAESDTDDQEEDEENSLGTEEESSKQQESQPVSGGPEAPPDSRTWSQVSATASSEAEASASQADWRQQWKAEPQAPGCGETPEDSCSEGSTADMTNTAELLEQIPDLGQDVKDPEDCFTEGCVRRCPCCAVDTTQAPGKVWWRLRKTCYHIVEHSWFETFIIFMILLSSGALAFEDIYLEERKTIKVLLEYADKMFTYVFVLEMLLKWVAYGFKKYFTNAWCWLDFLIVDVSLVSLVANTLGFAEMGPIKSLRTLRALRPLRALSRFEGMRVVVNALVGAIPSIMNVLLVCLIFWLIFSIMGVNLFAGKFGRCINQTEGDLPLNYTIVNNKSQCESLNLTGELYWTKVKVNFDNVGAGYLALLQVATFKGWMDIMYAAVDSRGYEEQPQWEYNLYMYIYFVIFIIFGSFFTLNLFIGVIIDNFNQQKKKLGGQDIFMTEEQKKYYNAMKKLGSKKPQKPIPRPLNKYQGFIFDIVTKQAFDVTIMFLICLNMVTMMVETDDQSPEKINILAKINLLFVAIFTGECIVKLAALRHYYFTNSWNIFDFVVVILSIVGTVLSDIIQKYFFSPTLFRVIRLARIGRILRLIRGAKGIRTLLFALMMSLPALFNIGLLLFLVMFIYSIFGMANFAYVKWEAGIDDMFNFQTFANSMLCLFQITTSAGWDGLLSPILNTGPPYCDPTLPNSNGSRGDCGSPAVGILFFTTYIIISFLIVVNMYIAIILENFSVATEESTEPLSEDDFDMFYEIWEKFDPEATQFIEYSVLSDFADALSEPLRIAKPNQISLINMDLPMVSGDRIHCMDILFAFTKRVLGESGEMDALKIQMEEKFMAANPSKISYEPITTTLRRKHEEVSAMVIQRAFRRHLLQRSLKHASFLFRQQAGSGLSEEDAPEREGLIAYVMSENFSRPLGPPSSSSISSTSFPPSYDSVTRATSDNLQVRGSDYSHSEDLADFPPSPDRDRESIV

`Nc1ccncc1` [4-AP]: the “effect on APDtri” value in the data set with hiPSC-CM microtissues [1] is on record as “no effect on APDtri”. Further, the APD entry with hiPSC-CM microtissues [1] (0.5 mM) is “APD prolongation”. Besides, the “slope of APDtri versus APDMxR” value in the data set on hiPSC-CM microtissues [1] (0.5 mM, p=0.199) was “did not steepen”.

For the compound `CC(C)NCC(O)c1ccc(O)c(O)c1` (stereo not shown) [Isoproterenol, isoproterenol], the “spontaneous activity (CaTs, GCaMP)” value in the data set on hiPSC-CM microtissues [2] is reported as “spontaneous activity increased”. In addition, the “average reduction of APD80” value in the data set with hiPSC-CM microtissues [1] (human, 20 min, 100 nM) amounted to 45 milliseconds.

`COC(=O)C1=C(C)NC(C)=C([N+](=O)[O-])C1c1ccccc1C(F)(F)F` (stereo not shown) [BayK8644]: the “effect on APDtri” value in the data set with hiPSC-CM microtissues [1] was “no effect on APDtri”.

As a reminder, the IC50 is the concentration that gives 50% inhibition. One may read the Cmax as the peak of the concentration-time curve. Turning to `COc1ccccc1OCC(O)CN1CCN(CC(=O)Nc2c(C)cccc2C)CC1` (stereo not shown) [Ranolazine, ranolazine], the half-maximal inhibitory concentration (IC50) in [3] was 5.9 µM; on peak ICa it was 296 µM; on INCX, 91 µM; on late ICa it was 50 µM. Further, in data set [4], the “mean steady-state Cmax” value was 2569 ng/mL. Moreover, the figures for the Cmax in data set [5] (read-out: 95% of Cmax values) and in [5] (read-out: mean steady-state Cmax) were 0.98 to 14.2 µM and 6 µM, respectively. For the same compound, the “Dose-dependent mean difference of APD30” value was found to be 4.692 in the data set on hiPSC-CM microtissues [1] (human, 20 min, 2 μM); 20.71 in the data set with hiPSC-CM microtissues [1] (human, 20 min, 10 μM); 57.9565 with hiPSC-CM microtissues [1] (human, 20 min, 100 μM). For the same compound, the “Dose-dependent mean difference of APD60” value in the data set on hiPSC-CM microtissues [1] (human, 20 min, 2 μM) was −2.806; in the data set with hiPSC-CM microtissues [1] (human, 20 min, 10 μM), 20.5335; in the data set on hiPSC-CM microtissues [1] (human, 20 min, 100 μM) it was 108.574. In addition, the “Dose-dependent mean difference of APD80” value is reported as 4.629 in the data set with hiPSC-CM microtissues [1] (human, 20 min, 2 μM); 79.1112 with hiPSC-CM microtissues [1] (human, 20 min, 10 μM); 242.133 in the data set with hiPSC-CM microtissues [1] (human, 20 min, 100 μM). In addition, the “Dose-dependent mean difference of APDM×R” value in the data set with hiPSC-CM microtissues [1] (human, 20 min, 2 μM) is on record as −9.87; with hiPSC-CM microtissues [1] (human, 20 min, 10 μM) it was 13.1316; with hiPSC-CM microtissues [1] (human, 20 min, 100 μM), 353.211. Moreover, the “Dose-dependent mean difference of APDtri” value was −7.031 in the data set with hiPSC-CM microtissues [1] (human, 20 min, 2 μM); −7.337 in the data set on hiPSC-CM microtissues [1] (human, 20 min, 10 μM); 244.733 with hiPSC-CM microtissues [1] (human, 20 min, 100 μM). Further, the “Dose-dependent mean difference of Rise Time” value in the data set with hiPSC-CM microtissues [1] (human, 20 min, 2 μM) is given as 0.1436; in the data set with hiPSC-CM microtissues [1] (human, 20 min, 10 μM) it was 1.025; in the data set on hiPSC-CM microtissues [1] (human, 20 min, 100 μM), 12.5916.

Take `CC(C)(c1ccc(O)cc1)c1ccc(O)cc1` [BPA, bisphenol-A]: in the data set on rats, the concentration promoting arrhythmias is 0.001 µM. The IC50 on sodium channel Nav1.5 is 25 µM. For the same compound, in the data set with hiPSC-CM microtissues [1], the “action potential duration measurements” value is “shifts action potential duration measurements”, the “action potential rise time” value was “slowed action potential rise time” and the stimulation delay result is “increased stimulation delay”. Besides, in the data set on hiPSC-CM microtissues [1] (female, human, 20 min), the “APD30 and APD50 relative to APD80” value is “APD30 and APD50 were shortened more than APD80”. Besides, in the data set on hiPSC-CM microtissues [1] (human, 20 min, 1 nM), the “Dose-dependent mean difference of APD30” value was 34.5043, the “Dose-dependent mean difference of APD60” value amounted to 37.3566, the “Dose-dependent mean difference of APD80” value worked out at 42.7763 and the “Dose-dependent mean difference of APDM×R” value is given as 34.0012. Also, in the data set on hiPSC-CM microtissues [1] (human, 20 min, 1 nM), the “Dose-dependent mean difference of APDtri” value is reported as −3.327 and the “Dose-dependent mean difference of Rise Time” value was found to be 1.176. Moreover, in the data set with hiPSC-CM microtissues [1] (human, 20 min, 10 nM), the “Dose-dependent mean difference of APD30” value was −15.3826, the “Dose-dependent mean difference of APD60” value is given as −14.0569, the “Dose-dependent mean difference of APD80” value turned out to be 11.1129 and the “Dose-dependent mean difference of APDM×R” value was −14.786. Further, in the data set with hiPSC-CM microtissues [1] (human, 20 min, 10 nM), the “Dose-dependent mean difference of APDtri” value is given as −0.672 and the “Dose-dependent mean difference of Rise Time” value is −0.3497. For the same compound, in the data set on hiPSC-CM microtissues [1] (human, 20 min, 100 nM), the “Dose-dependent mean difference of APD30” value is reported as −17.808, the “Dose-dependent mean difference of APD60” value was −16.8623, the “Dose-dependent mean difference of APD80” value amounted to 10.0440 and the “Dose-dependent mean difference of APDM×R” value is −23.7763. Also, in the data set with hiPSC-CM microtissues [1] (human, 20 min, 100 nM), the “Dose-dependent mean difference of APDtri” value was −6.828 and the “Dose-dependent mean difference of Rise Time” value is −1.734. For the same compound, in the data set on hiPSC-CM microtissues [1] (human, 20 min, 1000 nM), the “Dose-dependent mean difference of APD30” value was −28.3006, the “Dose-dependent mean difference of APD60” value is on record as −31.0489, the “Dose-dependent mean difference of APD80” value is reported as −4.641 and the “Dose-dependent mean difference of APDM×R” value is recorded as −40.7783. Also, in the data set on hiPSC-CM microtissues [1] (human, 20 min, 1000 nM), the “Dose-dependent mean difference of APDtri” value is −9.615 and the “Dose-dependent mean difference of Rise Time” value is on record as −2.203.
